Patent publication US20230085307A1, “PYRIDAZINONE COMPOUND AND HERBICIDE” (NISSAN CHEMICAL CORPORATION, priority 2019, published 2023)

Test system: oval-leafed pondweed
Assay: Test Example 1: herbicidal activity, application before weed generation under submerged conditions (Table 16, symbol C)
Type: in vivo, oval-leafed pondweed (Monochoria vaginalis)
Settings: amount of applied herbicide 320 g/ha
In short: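 Submerged Wagner pots (alluvial soil, 4 cm water) sown with weed seeds and planted with 2.5-leaf rice seedlings; emulsifiable concentrate diluted in water applied to water surface on sowing day. Held in greenhouse at 25-30 °C; injury scored 0-5 by herbicidal rate after three weeks.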

| Structure (SMILES) | Herbicidal effect, C: oval-leafed pondweed |
| --- | --- |
| CCCC(=O)Oc1c(C)nn(C)c(=O)c1-c1c(-c2ccc(OC)cc2)sc2c(F)cccc12 [4-006] | 0 (Herbicidal rate of 5% or less (almost no effect)) |
| CCCOc1ccc(-c2sc3c(Cl)cccc3c2-c2c(OC(=O)CCC)c(C)nn(C)c2=O)cc1 [4-028] | 0 (Herbicidal rate of 5% or less (almost no effect)) |

Test system: Japanese bulrush
Assay: Test Example 2: herbicidal activity, application during weed generation under submerged conditions (Table 17, symbol B)
Type: in vivo, Japanese bulrush (Schoenoplectus juncoides)
Settings: AAH 320 g/ha; application during weed generation, submerged conditions
In short: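 In this pot test, flooded alluvial soil (water depth 4 cm) holds all three species sown as a mixture. Once seedlings have one to two leaves, the compound's emulsion, thinned with water to the intended dose, is poured on the water; grading follows after three weeks on the earlier criteria.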

| Structure (SMILES) | herbicidal effect rating, B: Japanese bulrush |
| --- | --- |
| CCCC(=O)Oc1c(C)nn(C)c(=O)c1-c1c(-c2ccc(OC)cc2)sc2c(F)cccc12 [4-006] | 3 (Herbicidal rate of 40% or more and less than 70%) |
| CCCOc1ccc(-c2sc3c(Cl)cccc3c2-c2c(OC(=O)CCC)c(C)nn(C)c2=O)cc1 [4-028] | 3 (Herbicidal rate of 40% or more and less than 70%) |

Test system: Chinese sprangletop
Assay: Test Example 3: herbicidal effect by foliage application, Wagner pot (Table 18, symbol D)
Type: in vivo, chinese sprangletop (Leptochloa chinensis)
Settings: 320 g/ha
In short: (§1)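 Plants were sown in alluvial soil held under 0.1–0.5 cm standing water and grown 14 days in a greenhouse at 25–30 °C. An emulsifiable formulation, water-diluted to the set dose, was then sprayed onto the foliage, and effects were scored three weeks later using previously defined criteria.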

| Structure (SMILES) | herbicidal effect on Chinese sprangletop (D) |
| --- | --- |
| CCCC(=O)Oc1c(C)nn(C)c(=O)c1-c1c(-c2ccc(OC)cc2)sc2c(F)cccc12 [4-006] | 5 (Herbicidal rate of 90% or more (almost completely withered)) |
| CCCOc1ccc(-c2sc3c(Cl)cccc3c2-c2c(OC(=O)CCC)c(C)nn(C)c2=O)cc1 [4-028] | 3 (Herbicidal rate of 40% or more and less than 70%) |

Test system: rice flat sedge
Assay: Test Example 3: herbicidal effect by foliage application, Wagner pot (Table 18, symbol E)
Type: in vivo, rice flat sedge (Cyperus iria)
Settings: 320 g/ha
In short: as §1

| Structure (SMILES) | herbicidal effect on rice flat sedge (E) |
| --- | --- |
| CCCC(=O)Oc1c(C)nn(C)c(=O)c1-c1c(-c2ccc(OC)cc2)sc2c(F)cccc12 [4-006] | 5 (Herbicidal rate of 90% or more (almost completely withered)) |
| CCCOc1ccc(-c2sc3c(Cl)cccc3c2-c2c(OC(=O)CCC)c(C)nn(C)c2=O)cc1 [4-028] | 5 (Herbicidal rate of 90% or more (almost completely withered)) |

Test system: green foxtail
Assay: Test Example 4: herbicidal effect by soil treatment (Table 19, symbol G)
Type: in vivo, green foxtail (Setaria viridis)
Settings: amount of applied herbicide 320 g/ha
In short: (§2)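 Herbicidal effect was rated 3 weeks after treatment, using the scoring criteria of an earlier test. The compound, formulated as an emulsion and diluted in water to a set herbicide amount, had been sprayed uniformly on soil over freshly sown seeds. Growth took place in a greenhouse at 25° C. to 30° C.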

| Structure (SMILES) | Herbicidal effect by soil treatment, G: green foxtail |
| --- | --- |
| CCCC(=O)Oc1c(C)nn(C)c(=O)c1-c1c(-c2ccc(OC)cc2)sc2c(F)cccc12 [4-006] | 4 (Herbicidal rate of 70% or more and less than 90%) |
| CCCOc1ccc(-c2sc3c(Cl)cccc3c2-c2c(OC(=O)CCC)c(C)nn(C)c2=O)cc1 [4-028] | 0 (Herbicidal rate of 5% or less (almost no effect)) |

Test system: wild oat
Assay: Test Example 4: herbicidal effect by soil treatment (Table 19, symbol I)
Type: in vivo, wild oat (Avena fatua)
Settings: amount of applied herbicide 320 g/ha
In short: as §2

| Structure (SMILES) | Herbicidal effect by soil treatment, I: wild oat |
| --- | --- |
| CCCC(=O)Oc1c(C)nn(C)c(=O)c1-c1c(-c2ccc(OC)cc2)sc2c(F)cccc12 [4-006] | 0 (Herbicidal rate of 5% or less (almost no effect)) |
| CCCOc1ccc(-c2sc3c(Cl)cccc3c2-c2c(OC(=O)CCC)c(C)nn(C)c2=O)cc1 [4-028] | 0 (Herbicidal rate of 5% or less (almost no effect)) |

Test system: Italian ryegrass
Assay: Test Example 4: herbicidal effect by soil treatment (Table 19, symbol K)
Type: in vivo, Italian ryegrass (Lolium multiflorum)
Settings: amount of applied herbicide 320 g/ha
In short: as §2

| Structure (SMILES) | Herbicidal effect by soil treatment, K: Italian ryegrass |
| --- | --- |
| CCCC(=O)Oc1c(C)nn(C)c(=O)c1-c1c(-c2ccc(OC)cc2)sc2c(F)cccc12 [4-006] | 0 (Herbicidal rate of 5% or less (almost no effect)) |
| CCCOc1ccc(-c2sc3c(Cl)cccc3c2-c2c(OC(=O)CCC)c(C)nn(C)c2=O)cc1 [4-028] | 0 (Herbicidal rate of 5% or less (almost no effect)) |

Test system: windgrass
Assay: Test Example 4: herbicidal effect by soil treatment (Table 19, symbol L)
Type: in vivo, windgrass (Apera spica-venti)
Settings: amount of applied herbicide 320 g/ha
In short: as §2

| Structure (SMILES) | Herbicidal effect by soil treatment, L: windgrass |
| --- | --- |
| CCCC(=O)Oc1c(C)nn(C)c(=O)c1-c1c(-c2ccc(OC)cc2)sc2c(F)cccc12 [4-006] | 0 (Herbicidal rate of 5% or less (almost no effect)) |
| CCCOc1ccc(-c2sc3c(Cl)cccc3c2-c2c(OC(=O)CCC)c(C)nn(C)c2=O)cc1 [4-028] | 0 (Herbicidal rate of 5% or less (almost no effect)) |

Test system: velvetleaf
Assay: Test Example 4: herbicidal effect by soil treatment (Table 19, symbol M)
Type: in vivo, velvetleaf (Abutilon theophrasti)
Settings: amount of applied herbicide 320 g/ha
In short: as §2

| Structure (SMILES) | Herbicidal effect by soil treatment, M: velvetleaf |
| --- | --- |
| CCCC(=O)Oc1c(C)nn(C)c(=O)c1-c1c(-c2ccc(OC)cc2)sc2c(F)cccc12 [4-006] | 1 (Herbicidal rate of 5% or more and less than 20%) |
| CCCOc1ccc(-c2sc3c(Cl)cccc3c2-c2c(OC(=O)CCC)c(C)nn(C)c2=O)cc1 [4-028] | 1 (Herbicidal rate of 5% or more and less than 20%) |

Test system: redroot pigweed
Assay: Test Example 4: herbicidal effect by soil treatment (Table 19, symbol N)
Type: in vivo, redroot pigweed (Amaranthus retroflexus)
Settings: amount of applied herbicide 320 g/ha
In short: as §2

| Structure (SMILES) | Herbicidal effect by soil treatment, N: redroot pigweed |
| --- | --- |
| CCCC(=O)Oc1c(C)nn(C)c(=O)c1-c1c(-c2ccc(OC)cc2)sc2c(F)cccc12 [4-006] | 4 (Herbicidal rate of 70% or more and less than 90%) |
| CCCOc1ccc(-c2sc3c(Cl)cccc3c2-c2c(OC(=O)CCC)c(C)nn(C)c2=O)cc1 [4-028] | 4 (Herbicidal rate of 70% or more and less than 90%) |

Test system: lambsquarters
Assay: Test Example 4: herbicidal effect by soil treatment (Table 19, symbol O)
Type: in vivo, lambsquarters (Chenopodium album)
Settings: amount of applied herbicide 320 g/ha
In short: as §2

| Structure (SMILES) | Herbicidal effect by soil treatment, O: lambsquarters |
| --- | --- |
| CCCC(=O)Oc1c(C)nn(C)c(=O)c1-c1c(-c2ccc(OC)cc2)sc2c(F)cccc12 [4-006] | 4 (Herbicidal rate of 70% or more and less than 90%) |
| CCCOc1ccc(-c2sc3c(Cl)cccc3c2-c2c(OC(=O)CCC)c(C)nn(C)c2=O)cc1 [4-028] | 4 (Herbicidal rate of 70% or more and less than 90%) |

Test system: persian speedwell
Assay: Test Example 4: herbicidal effect by soil treatment (Table 19, symbol R)
Type: in vivo, Persian speedwell (Veronica persica)
Settings: amount of applied herbicide 320 g/ha
In short: as §2

| Structure (SMILES) | Herbicidal effect by soil treatment, R: persian speedwell |
| --- | --- |
| CCCC(=O)Oc1c(C)nn(C)c(=O)c1-c1c(-c2ccc(OC)cc2)sc2c(F)cccc12 [4-006] | 0 (Herbicidal rate of 5% or less (almost no effect)) |
| CCCOc1ccc(-c2sc3c(Cl)cccc3c2-c2c(OC(=O)CCC)c(C)nn(C)c2=O)cc1 [4-028] | 1 (Herbicidal rate of 5% or more and less than 20%) |

Test system: barnyard grass
Assay: Test Example 5: herbicidal effect by foliage application, plastic box (Table 20, symbol H)
Type: in vivo, barnyard grass (Echinochloa crus-galli)
Settings: 320 g/ha, foliage application after 14-day growth, evaluated three weeks after application
In short: (§3)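 Foliar spray test: emulsion formulation diluted in water to a set application rate, sprayed onto 14-day-old plants raised in diluvial soil at 25° C to 30° C under glass. Both herbicidal effect and crop effect rated visually three weeks later.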

| Structure (SMILES) | herbicidal effect on H: barnyard grass (evaluation grade 0-5) |
| --- | --- |
| CCCC(=O)Oc1c(C)nn(C)c(=O)c1-c1c(-c2ccc(OC)cc2)sc2c(F)cccc12 [4-006] | 4 (Herbicidal rate of 70% or more and less than 90%) |
| CCCOc1ccc(-c2sc3c(Cl)cccc3c2-c2c(OC(=O)CCC)c(C)nn(C)c2=O)cc1 [4-028] | 5 (Herbicidal rate of 90% or more (almost completely withered)) |

Test system: blackgrass
Assay: Test Example 5: herbicidal effect by foliage application, plastic box (Table 20, symbol J)
Type: in vivo, blackgrass (Alopecurus myosuroides)
Settings: 320 g/ha, foliage application after 14-day growth, evaluated three weeks after application
In short: as §3

| Structure (SMILES) | herbicidal effect on J: blackgrass (evaluation grade 0-5) |
| --- | --- |
| CCCC(=O)Oc1c(C)nn(C)c(=O)c1-c1c(-c2ccc(OC)cc2)sc2c(F)cccc12 [4-006] | 1 (Herbicidal rate of 5% or more and less than 20%) |
| CCCOc1ccc(-c2sc3c(Cl)cccc3c2-c2c(OC(=O)CCC)c(C)nn(C)c2=O)cc1 [4-028] | 0 (Herbicidal rate of 5% or less (almost no effect)) |

Test system: Italian ryegrass
Assay: Test Example 5: herbicidal effect by foliage application, plastic box (Table 20, symbol K)
Type: in vivo, Italian ryegrass (Lolium multiflorum)
Settings: 320 g/ha, foliage application after 14-day growth, evaluated three weeks after application
In short: as §3

| Structure (SMILES) | herbicidal effect on K: Italian ryegrass (evaluation grade 0-5) |
| --- | --- |
| CCCC(=O)Oc1c(C)nn(C)c(=O)c1-c1c(-c2ccc(OC)cc2)sc2c(F)cccc12 [4-006] | 4 (Herbicidal rate of 70% or more and less than 90%) |
| CCCOc1ccc(-c2sc3c(Cl)cccc3c2-c2c(OC(=O)CCC)c(C)nn(C)c2=O)cc1 [4-028] | 2 (Herbicidal rate of 20% or more and less than 40%) |

Test system: velvetleaf
Assay: Test Example 5: herbicidal effect by foliage application, plastic box (Table 20, symbol M)
Type: in vivo, velvetleaf (Abutilon theophrasti)
Settings: 320 g/ha, foliage application after 14-day growth, evaluated three weeks after application
In short: as §3

| Structure (SMILES) | herbicidal effect on M: velvetleaf (evaluation grade 0-5) |
| --- | --- |
| CCCC(=O)Oc1c(C)nn(C)c(=O)c1-c1c(-c2ccc(OC)cc2)sc2c(F)cccc12 [4-006] | 5 (Herbicidal rate of 90% or more (almost completely withered)) |
| CCCOc1ccc(-c2sc3c(Cl)cccc3c2-c2c(OC(=O)CCC)c(C)nn(C)c2=O)cc1 [4-028] | 5 (Herbicidal rate of 90% or more (almost completely withered)) |

Test system: chickweed
Assay: Test Example 5: herbicidal effect by foliage application, plastic box (Table 20, symbol P)
Type: in vivo, common chickweed (Stellaria media)
Settings: 320 g/ha, foliage application after 14-day growth, evaluated three weeks after application
In short: as §3

| Structure (SMILES) | herbicidal effect on P: chickweed (evaluation grade 0-5) |
| --- | --- |
| CCCC(=O)Oc1c(C)nn(C)c(=O)c1-c1c(-c2ccc(OC)cc2)sc2c(F)cccc12 [4-006] | 5 (Herbicidal rate of 90% or more (almost completely withered)) |
| CCCOc1ccc(-c2sc3c(Cl)cccc3c2-c2c(OC(=O)CCC)c(C)nn(C)c2=O)cc1 [4-028] | 5 (Herbicidal rate of 90% or more (almost completely withered)) |
